In paper PMC11822212, “High-throughput screening identifies Aurora kinase B as a critical therapeutic target for Merkel cell carcinoma” (Nature Communications, 2025):
Where two headings read alike, the source gives them in different places.

Assays:
Test in all cases: qHTS cell viability (CellTiter-Glo, 72 h; primary and follow-up small molecule screen)
Type in all cases: cell-based, human
MCC13 cells (VN-MCC) = tested on: MCC13 cells (VN-MCC)
MCC26 cells (VN-MCC) = tested on: MCC26 cells (VN-MCC)
UISO cells (VN-MCC) = tested on: UISO cells (VN-MCC)
WAGA cells (VP-MCC) = tested on: WAGA cells (VP-MCC)
MKL-1 cells (VP-MCC) = tested on: MKL-1 cells (VP-MCC)
MKL-2 cells (VP-MCC) = tested on: MKL-2 cells (VP-MCC)
[1] = follow-up screen, MCC13, replicate 1
[2] = follow-up screen, MCC13, replicate 2
[3] = follow-up screen, MCC13, replicate 3
[4] = follow-up screen, MCC26, replicate 1
[5] = follow-up screen, MCC26, replicate 2
[6] = follow-up screen, MCC26, replicate 3
[7] = follow-up screen, UISO, replicate 1
[8] = follow-up screen, UISO, replicate 2
[9] = follow-up screen, UISO, replicate 3
[10] = follow-up screen, WAGA, replicate 1
[11] = follow-up screen, WAGA, replicate 2
[12] = follow-up screen, WAGA, replicate 3
[13] = follow-up screen, MKL-1, replicate 1
[14] = follow-up screen, MKL-1, replicate 2
[15] = follow-up screen, MKL-1, replicate 3
[16] = follow-up screen, MKL-2, replicate 1
[17] = follow-up screen, MKL-2, replicate 2
[18] = follow-up screen, MKL-2, replicate 3

Structure (SMILES) | Area under the dose-response curve (AUC) MCC13 Replicate 1 (MCC13 cells (VN-MCC)) | Area under the dose-response curve (AUC) MCC13 Replicate 2 (MCC13 cells (VN-MCC)) | Area under the dose-response curve (AUC) MCC13 Replicate 1 (MCC13 cells (VN-MCC); [1]) | Area under the dose-response curve (AUC) MCC13 Replicate 2 (MCC13 cells (VN-MCC); [2]) | Area under the dose-response curve (AUC) MCC13 Replicate 3 (MCC13 cells (VN-MCC); [3]) | Area under the dose-response curve (AUC) MCC26 Replicate 1 (MCC26 cells (VN-MCC); [4]) | Area under the dose-response curve (AUC) MCC26 Replicate 2 (MCC26 cells (VN-MCC); [5]) | Area under the dose-response curve (AUC) MCC26 Replicate 3 (MCC26 cells (VN-MCC); [6]) | Area under the dose-response curve (AUC) UISO Replicate 1 (UISO cells (VN-MCC); [7]) | Area under the dose-response curve (AUC) UISO Replicate 2 (UISO cells (VN-MCC); [8]) | Area under the dose-response curve (AUC) UISO Replicate 3 (UISO cells (VN-MCC); [9]) | Area under the dose-response curve (AUC) WAGA Replicate 1 (WAGA cells (VP-MCC); [10]) | Area under the dose-response curve (AUC) WAGA Replicate 2 (WAGA cells (VP-MCC); [11]) | Area under the dose-response curve (AUC) WAGA Replicate 3 (WAGA cells (VP-MCC); [12]) | Area under the dose-response curve (AUC) MKL-1 Replicate 1 (MKL-1 cells (VP-MCC); [13]) | Area under the dose-response curve (AUC) MKL-1 Replicate 2 (MKL-1 cells (VP-MCC); [14]) | Area under the dose-response curve (AUC) MKL-1 Replicate 3 (MKL-1 cells (VP-MCC); [15]) | Area under the dose-response curve (AUC) MKL-2 Replicate 1 (MKL-2 cells (VP-MCC); [16]) | Area under the dose-response curve (AUC) MKL-2 Replicate 2 (MKL-2 cells (VP-MCC); [17]) | Area under the dose-response curve (AUC) MKL-2 Replicate 3 (MKL-2 cells (VP-MCC); [18]) | other results
C[n+]1cc2c3c(ccc2c2ccc4cc5c(cc4c21)OCO5)OCO3 [Sanguinarine] | 361.4 | 359.5 |  |  |  |  |  |  |  |  |  |  |  |  |  |  |  |  |  |  | Area under the dose-response curve (AUC) MCC13 Replicate 3 (MCC13 cells (VN-MCC)): 378.6; Area under the dose-response curve (AUC) MCC26 Replicate 1 (MCC26 cells (VN-MCC)): 339.9; Area under the dose-response curve (AUC) MCC26 Replicate 2 (MCC26 cells (VN-MCC)): 348.4; Area under the dose-response curve (AUC) MCC26 Replicate 3 (MCC26 cells (VN-MCC)): 364.0; Area under the dose-response curve (AUC) UISO Replicate 1 (UISO cells (VN-MCC)): 370.0; Area under the dose-response curve (AUC) UISO Replicate 2 (UISO cells (VN-MCC)): 363.9; Area under the dose-response curve (AUC) UISO Replicate 3 (UISO cells (VN-MCC)): 365.4; Area under the dose-response curve (AUC) WAGA Replicate 1 (WAGA cells (VP-MCC)): 371.2; Area under the dose-response curve (AUC) WAGA Replicate 2 (WAGA cells (VP-MCC)): 384.9; Area under the dose-response curve (AUC) WAGA Replicate 3 (WAGA cells (VP-MCC)): 367.1; Area under the dose-response curve (AUC) MKL-1 Replicate 1 (MKL-1 cells (VP-MCC)): 358.8; Area under the dose-response curve (AUC) MKL-1 Replicate 2 (MKL-1 cells (VP-MCC)): 334.5; Area under the dose-response curve (AUC) MKL-1 Replicate 3 (MKL-1 cells (VP-MCC)): 363.7; Area under the dose-response curve (AUC) MKL-2 Replicate 1 (MKL-2 cells (VP-MCC)): 328.8; Area under the dose-response curve (AUC) MKL-2 Replicate 2 (MKL-2 cells (VP-MCC)): 346.3; Area under the dose-response curve (AUC) MKL-2 Replicate 3 (MKL-2 cells (VP-MCC)): 358.6
CN[C@@H]1[C@H](O)[C@H](NC)[C@H]2O[C@@]3(O)C(=O)C[C@@H](C)O[C@H]3O[C@@H]2[C@H]1O.Cl.Cl.O.O.O.O.O [Spectinomycin hydrochloride] |  |  | 504.6 | 484.6 | 486.4 | 469.4 | 428.8 | 486.9 | 480.2 | 491.5 | 485.2 | 531.5 | 530.5 | 510.1 | 495.1 | 464.4 | 515.8 | 495.5 | 540.4 | 501.9 | 
O[C@H]1[C@H]2[C@H](O)CCCN2C[C@H]1O [Swainsonine] | 474.5 | 467.6 |  |  |  |  |  |  |  |  |  |  |  |  |  |  |  |  |  |  | Area under the dose-response curve (AUC) MCC13 Replicate 3 (MCC13 cells (VN-MCC)): 453.7; Area under the dose-response curve (AUC) MCC26 Replicate 1 (MCC26 cells (VN-MCC)): 425.6; Area under the dose-response curve (AUC) MCC26 Replicate 2 (MCC26 cells (VN-MCC)): 420.4; Area under the dose-response curve (AUC) MCC26 Replicate 3 (MCC26 cells (VN-MCC)): 449.5; Area under the dose-response curve (AUC) UISO Replicate 1 (UISO cells (VN-MCC)): 446.0; Area under the dose-response curve (AUC) UISO Replicate 2 (UISO cells (VN-MCC)): 458.3; Area under the dose-response curve (AUC) UISO Replicate 3 (UISO cells (VN-MCC)): 417.9; Area under the dose-response curve (AUC) WAGA Replicate 1 (WAGA cells (VP-MCC)): 517.4; Area under the dose-response curve (AUC) WAGA Replicate 2 (WAGA cells (VP-MCC)): 504.3; Area under the dose-response curve (AUC) WAGA Replicate 3 (WAGA cells (VP-MCC)): 463.6; Area under the dose-response curve (AUC) MKL-1 Replicate 1 (MKL-1 cells (VP-MCC)): 483.5; Area under the dose-response curve (AUC) MKL-1 Replicate 2 (MKL-1 cells (VP-MCC)): 459.4; Area under the dose-response curve (AUC) MKL-1 Replicate 3 (MKL-1 cells (VP-MCC)): 455.2; Area under the dose-response curve (AUC) MKL-2 Replicate 1 (MKL-2 cells (VP-MCC)): 462.0; Area under the dose-response curve (AUC) MKL-2 Replicate 2 (MKL-2 cells (VP-MCC)): 456.2; Area under the dose-response curve (AUC) MKL-2 Replicate 3 (MKL-2 cells (VP-MCC)): 445.8
CC(/C=C/C(=O)NO)=C\[C@@H](C)C(=O)c1ccc(N(C)C)cc1 [TSA] | 419.6 | 438.9 |  |  |  |  |  |  |  |  |  |  |  |  |  |  |  |  |  |  | Area under the dose-response curve (AUC) MCC13 Replicate 3 (MCC13 cells (VN-MCC)): 399.7; Area under the dose-response curve (AUC) MCC26 Replicate 1 (MCC26 cells (VN-MCC)): 375.6; Area under the dose-response curve (AUC) MCC26 Replicate 2 (MCC26 cells (VN-MCC)): 383.1; Area under the dose-response curve (AUC) MCC26 Replicate 3 (MCC26 cells (VN-MCC)): 360.2; Area under the dose-response curve (AUC) UISO Replicate 1 (UISO cells (VN-MCC)): 357.7; Area under the dose-response curve (AUC) UISO Replicate 2 (UISO cells (VN-MCC)): 378.3; Area under the dose-response curve (AUC) UISO Replicate 3 (UISO cells (VN-MCC)): 338.8; Area under the dose-response curve (AUC) WAGA Replicate 1 (WAGA cells (VP-MCC)): 341.0; Area under the dose-response curve (AUC) WAGA Replicate 2 (WAGA cells (VP-MCC)): 323.1; Area under the dose-response curve (AUC) WAGA Replicate 3 (WAGA cells (VP-MCC)): 341.7; Area under the dose-response curve (AUC) MKL-1 Replicate 1 (MKL-1 cells (VP-MCC)): 401.2; Area under the dose-response curve (AUC) MKL-1 Replicate 2 (MKL-1 cells (VP-MCC)): 324.1; Area under the dose-response curve (AUC) MKL-1 Replicate 3 (MKL-1 cells (VP-MCC)): 329.2; Area under the dose-response curve (AUC) MKL-2 Replicate 1 (MKL-2 cells (VP-MCC)): 276.9; Area under the dose-response curve (AUC) MKL-2 Replicate 2 (MKL-2 cells (VP-MCC)): 277.0; Area under the dose-response curve (AUC) MKL-2 Replicate 3 (MKL-2 cells (VP-MCC)): 326.7
C/C=C(/C)C(=O)O[C@H]1C(C)=C2[C@H]([C@@H]1OC(=O)CCCCCCC)[C@@](C)(OC(C)=O)C[C@H](OC(=O)CCC)[C@@]1(O)[C@H]2OC(=O)[C@@]1(C)O [Thapsigargin] |  |  | 289.0 | 272.1 | 274.4 | 278.4 | 281.8 | 214.4 | 207.4 | 234.5 | 207.7 | 336.3 | 303.0 | 289.2 | 384.9 | 385.8 | 395.7 | 322.6 | 308.5 | 284.8 | 
CN(C)C(=S)SSC(=S)N(C)C [Thiram] |  |  | 426.5 | 421.8 | 374.2 | 337.3 | 393.8 | 315.2 | 236.0 | 292.8 | 254.7 | 336.4 | 438.2 | 469.3 | 288.7 | 292.8 | 242.1 | 303.0 | 281.4 | 269.4 | 
N#CC(=C(/N)Sc1ccccc1N)/C(C#N)=C(\N)Sc1ccccc1N [U-0126] |  |  | 475.9 | 463.7 | 403.4 | 467.3 | 454.7 | 472.7 | 414.2 | 403.9 | 361.8 | 550.5 | 484.0 | 458.9 | 488.8 | 473.7 | 468.2 | 434.1 | 447.4 | 479.4 | 
